We go through 3 compounds from patent US11840686B2, “Modulation of prekallikrein (PKK) expression” (Ionis Pharmaceuticals, Inc., priority 2013, dated 2023).

Strand notation (5' to 3'): a small letter for the sugar, then the base; units joined by * are phosphorothioate-linked, units joined directly phosphodiester-linked; [ ] holds rarer units or linkages, { } end groups; capitals alone tell only the bases. e = 2'-O-(2-methoxyethyl) (MOE); [5mC] = 5-methylcytosine; d = 2'-deoxy (DNA)

For data set [1], the system named is human PKK mRNA. The data set can be described thus: Dose-dependent antisense inhibition of human PKK in HepaRG cells, 0.12-10.00 uM (Example 4). The conditions noted are these: electroporation, ~16 h. In kind it is cell-based. The method, boiled down:
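HepaRG cells (20,000/well) electroporated with antisense oligonucleotide at 0.12, 0.37, 1.11, 3.33 and 10.00 μM, ~16 h treatment. PKK mRNA by qRT-PCR (primer probe set RTS3454), normalised to RIBOGREEN total RNA. % inhibition versus untreated cells; IC50 derived.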

In data set [2] the test system is captopril-induced vascular permeability. As to the kind of experiment: Combination of PKK and Factor 12 antisense oligonucleotides on captopril-induced vascular permeability (Example 15). Format: in vivo, mouse. The conditions noted are these: positive control: PBS + captopril 20 μg ip + HOE-140 30 μg ip. As for the experimental part: Mice were treated varying doses of ISIS 410944, a 5-10-5 MOE gapmer targeting Factor 12 ([…]; SEQ ID NO: 2247), and ISIS 482584 in a captopril-induced vascular permeability model.
Group 1 consisted of 4 mice and was treated with PBS administered subcutaneously twice a week for 3 weeks. No other treatment was administered to Group 1 which served as a control group to measure the basal levels of vascular permeability.
Group 2 consisted of 8 mice and was treated with PBS administered subcutaneously twice a week for 3 weeks. At the end of the treatment period, the mice were intraperitoneally administered 20 μg of captopril.
Group 3 consisted of 4 mice and was treated with PBS administered subcutaneously twice a week for 3 weeks. At the end of the treatment period, the mice were intraperitoneally administered 20 μg of captopril. The mice were also intraperitoneally administered 30 μg of HOE-140. Group 3 served as a positive control for inhibition of captopril-induced vascular permeability.
Groups 4, 5, 6, 7, and 8 consisted of 8 mice each and were treated with 2.5 mg/kg, 5 mg/kg, 10 mg/kg, 20 mg/kg, or 40 mg/kg (corresponding to 5 mg/kg, 10 mg/kg, 20 mg/kg, 40 mg/kg, or 80 mg/kg per week), respectively of ISIS 482584 and ISIS 410944 each administered subcutaneously twice a week for 3 weeks. At the end of the treatment period, the mice of all the groups were intraperitoneally administered 20 μg of captopril. Groups 4-8 served as the experimental treatment groups for examining the effect of ISIS 410944 and ISIS 482584 on captopril-induced vascular permeability.
All the groups were then injected with 30 mg/kg of Evans Blue solution in the tail vein. The mice were sacrificed 30 min after the Evans Blue solution administration and colons, feet, ears, and intestines were harvested.
The harvested tissues from the feet, colon, and ears were placed in formamide solution overnight to leach out the Evans Blue dye. The formamide solution containing feet and ear tissue was heated to 55° C. and left overnight. Higher OD values are associated with higher levels of permeability.

In data set [3] the test system is PKK mRNA. The data set can be described thus: PKK mRNA in liver of mice treated with ISIS 461756 (Example 18). In kind it is in vivo, mouse. The procedure:
Vascular permeability induced by ISIS 461756, an antisense oligonucleotide which targets murine C1 inhibitor mRNA, increases vascular permeability in mice and replicates the pathology of hereditary angioedema. The effect of ISIS 482584 on this model was evaluated.
One group of 8 mice was treated with 40 mg/kg ISIS 482584 administered subcutaneously twice a week for 3 weeks (weekly dose of 80 mg/kg). A second group of 8 mice was treated with 40 mg/kg of the control oligonucleotide, ISIS 141923, administered subcutaneously twice a week for 3 weeks (weekly dose of 80 mg/kg). A third group of 8 mice was treated with PBS administered subcutaneously twice a week for 3 weeks. On day 14, all the groups were treated with 12.5 mg/kg ISIS 461756 administered subcutaneously twice a week for 3 weeks (weekly dose of 25 mg/kg). A control group of mice was treated with PBS administered subcutaneously twice a week for 3 weeks but was not administered ISIS 461756.
At the end of the treatment period, all the groups were injected with 30 mg/kg of Evans Blue solution into the tail vein. The mice were sacrificed 30 min after the Evans Blue solution administration and colons, feet, ears, and intestines were harvested. The liver was also harvested for RNA analysis.
RNA was isolated from the liver for RT-PCR analysis of C1-INH and PKK mRNAs. The primer probe set for C1-INH is RTS3218 (forward sequence […], designated herein as SEQ ID NO: 2234; reverse sequence […], designated herein as SEQ ID NO: 2235; probe sequence […], designated herein as SEQ ID NO: 2236). The primer probe set for PKK is RTS3287 (forward sequence […], designated herein as SEQ ID NO: 2237; reverse sequence […], designated herein as SEQ ID NO: 2238; probe sequence […], designated herein as SEQ ID NO: 2239). The results are presented in Table 79 as percent inhibition compared to the PBS control not treated with ISIS 461756.

As a reminder, the IC50 is the point on the concentration scale where inhibition reaches its midpoint. Low readings indicate higher potency, high ones lower potency. With “531231 (eT*eA*eT*e[5mC]*eA*d[5mC]*dT*dG*dT*dA*d[5mC]*dT*dA*dG*dT*eT*eT*e[5mC]*e[5mC]*eT) [compound 531231]”, the “percent inhibition of PKK at 0.12 μM” value is reported as 23% in data set [1] (Table 32, 0.12 μM) and 18% in data set [1] (Table 33, 0.12 μM). In addition, the “percent inhibition of PKK at 0.37 μM” value in data set [1] (Table 32, 0.37 μM) was found to be 30%; in data set [1] (Table 33, 0.37 μM), 0%. The “percent inhibition of PKK at 1.11 μM” value in data set [1] (Table 32, 1.11 μM) turned out to be 76%; in data set [1] (Table 33, 1.11 μM), 36%. The “percent inhibition of PKK at 3.33 μM” value in data set [1] (Table 32, 3.33 μM) came to 89%; in data set [1] (Table 33, 3.33 μM) it was 76%. The “percent inhibition of PKK at 10.00 μM” value in data set [1] (Table 32, 10.00 μM) is recorded as 94%; in data set [1] (Table 33, 10.00 μM) it was 84%. In addition, the IC50 in data set [1] (Table 32, PKK mRNA) was 600 nM; in data set [1] (Table 33, PKK mRNA) it was 2000 nM.
Turning to `NC(N)=NCCC[C@@H](N)C(=O)N[C@@H](CCCN=C(N)N)C(=O)N1CCC[C@H]1C(=O)N1C[C@H](O)C[C@H]1C(=O)NCC(=O)N[C@@H](Cc1cccs1)C(=O)N[C@@H](CO)C(=O)N1Cc2ccccc2C[C@@H]1C(=O)N1[C@H](C(=O)N[C@@H](CCCN=C(N)N)C(=O)O)C[C@@H]2CCCC[C@@H]21` [HOE-140, Icatibant, reference compound], in data set [2], the “OD600 nm of Evans Blue dye, Colon” value came out at 0.23; the “OD600 nm of Evans Blue dye, Ears” value was 0.04; the “OD600 nm of Evans Blue dye, Feet” value was determined as 0.06; the “OD600 nm of Evans Blue dye, Intestines” value came out at 0.15.
Consider “ISIS 482584: 5-10-5 MOE gapmer targeting murine PKK, GGCATATTGGTTTTTGGAAT; SEQ ID NO: 2244 (antisense eG*eG*e[5mC]*eA*eT*dA*dT*dT*dG*dG*dT*dT*dT*dT*dT*eG*eG*eA*eA*eT)”, for which the “Percent inhibition of PKK mRNA expression compared to the untreated PBS control” value in data set [3] (liver, all groups ISIS 461756 25 mg/kg/wk, pretreatment PBS or oligonucleotide 80 mg/kg/wk sc 3 weeks) is listed as 78%. For the same compound, in data set [3] (mouse liver, 40 mg/kg s.c. twice a week for 3 weeks), the “PKK expression” value is listed as “significantly reduced PKK expression”.
